Assay results from patent publication US9573975B2, “Melanoma antigen peptide and uses thereof” (INSERM (INSTITUT NATIONAL DE LA SANTE ET DE LA RECHERCHE …, priority 2012, dated 2017).

Key:
Type in all cases: cell-based, human
[1] = test system: MELOE-111-30 specific CD4 T cell clone (5F9-DRβ1*0101); experiment: Peptide stimulation of CD4 T cell clone 5F9, intracellular cytokine staining; settings: DRβ1*0101 restricted T cell clone (5F9)
Protocol: (§1) FIG. 5: Minimal peptides recognized by MELOE-1 specific CD4 T cell clones. MELOE-1 specific CD4 T cell clones were incubated with various concentrations of the indicated peptides during 5 hours in presence of Brefeldin A. TNF-α production was assessed by intracellular labeling with an anti-TNF-α specific antibody. The core peptide sequence is indicated in bold on each figure panel, and black circles illustrate the best fitting peptide.
(§2) Lymphocytes were stimulated for 5 hours in the presence of brefeldin A (10 μg/mL) either with peptide alone (10 μM) in an autopresentation assay or with B-EBV or HLA-class II expressing melanoma cells pulsed 2 hours with the cognate peptide, at a ratio 1:2. In some experiments, blocking mAb against HLA-DP (clone B7.21 from Dr Charron, UMR940, Paris), HLA-DQ (clone SPVL3, Beckman Coulter) or HLA-DR (clone L243, BD Biosciences) were added at a concentration of 12.5 μg/ml. Cells were then stained with APC-conjugated anti-CD4 mAb, fixed with 4% paraformaldehyde, labeled with PE-conjugated anti-cytokine mAb and analyzed by flow cytometry.
(§3) We also documented the T helper profile of each T cell clone, by stimulating the CD4 T cell clones with the cognate peptide, and analyzing cytokine production. All the clones expressed Th1 cytokines (TNFα, IFNγ, IL2 and GM-CSF). On the contrary, these clones differ in their expression of Th2 cytokines. Indeed, the two DQ2 restricted T cell clones (9C12 and 4E2) and the DR1 restricted one (5F9) also strongly express two Th2 cytokines (IL4, and IL13), whereas the DR11-restricted T cell clone only weakly expressed IL4 (Table IV). None of the CD4 T cell expresses IL10 or IL5 at a significant level.
(§4) Three shorter peptides were better recognized by the DQ2-restricted 9C12 T cell clone, the shortest one being MELOE-17-19 (13-mer), recognized with an EC50 of 100 nM. The deletion of the two amino acids in C-term strongly reduces T cell clone recognition. […] Nonetheless all of these clones recognized a series of shortened peptides, thus we cannot formally assess that the shortest ones will be the exact peptides naturally presented on class II molecules.

[2] = test system: CD4 T cells in PBMC from healthy donors; experiment: PBMC from healthy donors stimulated with MELOE-1, restimulated with overlapping peptides, CD4/TNF-α staining; settings: for healthy donors in whom CD4 responses against the region were detected: seven healthy donors, TNFα production
Protocol: FIG. 1: (A) Percentages of TNF-α producing CD4 T cells among positive microcultures. Fourteen days after PBMC stimulation with MELOE-1 whole polypeptide (2-46), microcultures were re-stimulated with each indicated peptide during 5 hours. TNF-α production was then assessed by a double labeling TNF-α-CD4. Results were analyzed with a non-parametric test (Kruskal-Wallis) followed by a Dunns post-test. (B) Frequency of microcultures containing CD4 T cells specific for MELOE-1 peptides (assessed by TNF-α intracellular staining after re-stimulation with the 4 indicated peptides). 624 microcultures (from 7 healthy donors) were analyzed by a contingency table followed by a Fisher exact test.
PBMC from healthy donors were stimulated with 10 μM of MELOE-1. After 14 days, the presence of CD4 T cells specific for the different regions of MELOE-1 was assessed by restimulating cells with MELOE-12-21, MELOE-111-30, MELOE-118-37 and MELOE-126-46 peptides, followed by CD4/TNF-α double staining and flow cytometry analysis. Between brackets is indicated the mean % of TNF-α producing CD4 T cells, in positive microcultures. NA: not available.
(§5) PBMC from healthy donors or melanoma patients (2·10^5 cells/well) were cultured for 14 days with 10 μM of MELOE-1 whole antigen (46 amino acids) in RPMI medium supplemented with 8% HS, 50 IU/ml of rIL-2 (Chiron, France) and L-Glutamin, in 96-well multiplates. Micro cultures were then restimulated individually with each overlapping peptide (MELOE-12-21, MELOE-111-30, MELOE-118-37, MELOE-126-46 or MELOE-122-46 for melanoma patients) in the presence of 10 μg/mL brefeldin A for 5 hours and the percentage of CD4^+ specific T cells was assessed by TNF-α, IFN-γ or IL-4 intracellular staining A negative control without peptide was included in all experiments.
as §2
Our purpose was to look for the existence of class II helper epitopes all along MELOE-1 sequence (SEQ ID NO: 20), in order to document the immunogenicity of the different regions of this melanoma antigen. We stimulated 2·10^7 PBMC from seven healthy donors with MELOE-1 whole antigen and tested, after a 14-day culture period the presence of CD4 T cells specific for each region of the protein. Microcultures were screened for TNFα production by CD4+ T cells, after restimulation with four MELOE-1 derived overlapping peptides (Table I), in an autopresentation assay. […] On the contrary, the central region 18-37, containing an already described DR11-restricted epitope (24-37) located just at the end of this 20-mer peptide (Rogel et al., 2011), induced specific responses in microcultures deriving from only 2/7 donors (HD9 and HD17, both expressing the DR11 element). In these two donors, we detected 6 and 7% of positive microcultures, containing between 0.6 to 3.7% of TNFα producing CD4 T cells.

[3] = test system: CD4 T cells in PBMC from melanoma patients; experiment: PBMC from melanoma patients stimulated with MELOE-1, restimulated with peptides, CD4/IFN-γ and CD4/IL4 staining
Protocol: FIG. 2: (A) Percentages of cytokine producing CD4 T cells among positive microcultures. Fourteen days after PBMC stimulation with MELOE-1 whole polypeptide (2-46), microcultures were re-stimulated with each indicated peptide during 5 hours. IFN-γ (left panel) and IL4 (right panel) production was then assessed by a triple labeling IFN-γ-IL4-CD4. Results were analyzed with a non-parametric test (Kruskal-Wallis) followed by a Dunns post-test. (B) Frequency of microcultures containing CD4 T cells specific for MELOE-1 peptides (assessed by IFN-γ or IL4 intracellular staining after re-stimulation with the 3 indicated peptides). 576 microcultures (from 10 melanoma patients) were analyzed by a contingency table followed by a Fisher exact test.
PBMC from melanoma patients were stimulated with 10 μM of MELOE-1. After 14 days, the presence of CD4 T cells specific for the different regions of MELOE-1 was assessed by restimulating cells with MELOE-12-21, MELOE-111-30 and MELOE-122-46 peptides, followed by CD4/IFN-γ double staining for the detection of Th1 responses, and by CD4/IL4 double staining for Th2 responses. Between brackets is indicated the mean % of cytokine producing CD4 T cells, in positive microcultures.
as §5, §2
In order to confirm the immunogenicity of each MELOE-1 regions in melanoma patients, we stimulated melanoma patients PBMC with the MELOE-1 whole protein, and tested the reactivity of stimulated lymphocytes towards the three most immunogenic regions: 2-21, 11-30, and 22-46. For this study, instead of challenging microcultures with the 18-37 peptide, that appeared poorly immunogenic, we extended the C-terminus region from 26-46 to 22-46, in order to also detect responses to our previously described HLA-DR11-restricted epitope (24-37). […] We tested the induction of CD4 specific responses from MELOE-1 stimulated PBMC of 10 melanoma patients. We documented CD4 responses specific for the central region of MELOE-1 (11-30) for 7/9 patients, whereas responses specific for MELOE-12-21 and MELOE-122-46 were respectively detected in 4/9 and 5/9 patients (Table III). These responses were mainly Th1 responses (IFN-g production) while less frequent Th2 responses specific for the three regions of MELOE-1 were detected in 3/9 patients for MELOE-12-21, 2/9 patients for MELOE-111-30 and 5/9 patients for MELOE-122-46 (Table III). […] Concerning Th2 responses, much less frequent, the C-term region appeared to induce more frequently the growth of IL-4 producing CD4 T cells than the two other regions (FIG. 2A). […]

[4] = test system: MELOE-126-46 specific CD4 T cell clone (4E2-DQβ1*0201); experiment: Peptide stimulation of CD4 T cell clone 4E2, intracellular cytokine staining
Protocol: as §1, §2, §3, §4

[5] = test system: MELOE-1 specific T cell clones; experiment: HLA restriction of MELOE-1 specific T cell clones (anti-HLA blocking antibodies, HLA-matched B-EBV cell lines); settings: T cell clone 4E2 (from HD25)
Protocol: FIG. 3: HLA-restricting element of MELOE-1 specific T cell clones and reactivity against HLA-matched melanoma cell lines. The HLA restriction of MELOE-1 specific T cell clones was first assessed using anti-HLA blocking antibodies (upper panel). T cell clones were stimulated for 5 hours in the presence of brefeldin A (10 μg/mL) either with peptide alone (10 μM) in an autopresentation assay and in presence or not of blocking antibodies at a concentration of 12.5 μg/mL. HLA restriction was confirmed with HLA-matched B-EBV cell lines pulsed 2 hrs with the cognate peptide, at a ratio 1:2 (middle panel). Reactivity of each T cell clone against HLA-class II expressing melanoma cells was assessed, in presence or not of exogeneous peptide (lower panel). After 5 hours of stimulation, cells were then stained with APC-conjugated anti-CD4 mAb, fixed with 4% paraformaldehyde, labeled with PE-conjugated anti-TNF-α mAb and analyzed by flow cytometry.
as §2
In order to formally characterize the recognized epitopes, we derived CD4 T cell clones specific for each region of MELOE-1 by limiting dilution, from microcultures of healthy donors or melanoma patients, containing at least 0.5% of specific CD4 T cells. We succeeded to derive CD4 specific T cell clones from HD17, HD22, HD25 and Pt≠3 microcultures, which were reactive against MELOE-12-21 (HD22), MELOE-111-30 (HD17 and Pt≠3) and MELOE-126-46 (HD25). From each cloning experiment, we obtained between one and ten reactive CD4 T cell clones, that turned out to be the same clonotype after CDR3B sequencing (Table IV). A single CD4 T cell clone for each specificity was used for further experiments. The HLA-restriction was determined for each T cell clone, first by using HLA-class II blocking monoclonal antibodies (FIG. 3, upper panel), and further by testing the recognition of HLA-matched B-EBV cell lines loaded with each recognized long peptide (FIG. 3 middle panel). The two T cell clones named 9C12 and 4E2, derived from HD22 and HD25 and specific for MELOE-12-21 and MELOE-126-46 were restricted by the HLA-DQβ1*0202 and the DQβ1*0201 molecules respectively. […]

[6] = clone 4E2, cognate peptide 10 μM, 5 hours

Sequence: TSREQFLPSEGAA [MELOE-111-23]
- recognition by T cell clone (TNF-α production) [1]: optimal shorter peptides

Sequence: PSEGAACPPWHPSERISSTL [MELOE-118-37]
- mean % of TNF-α producing CD4 T cells, in positive microcultures ([2]; donor HD17): (3% ± 0.7)
- healthy donors in whom CD4 responses against the region were detected [2]: 2/7

Sequence: AACPPWHPSERISSTLNDECWPASL [MELOE-122-46]
- mean % of cytokine producing CD4 T cells, in positive microcultures (IFN-γ, Th1) ([3]; Pt ≠ 1): (4.8% ± 7.2)
- mean % of cytokine producing CD4 T cells, in positive microcultures (IL4, Th2) ([3]; Pt ≠ 1): (0.8% ± 0.3)
- mean % of cytokine producing CD4 T cells, in positive microcultures (IFN-γ, Th1) ([3]; Pt ≠ 2): (0.6% ± 0.02)
- mean % of cytokine producing CD4 T cells, in positive microcultures (IFN-γ, Th1) ([3]; Pt ≠ 3): (1.9% ± 1.3)
- mean % of cytokine producing CD4 T cells, in positive microcultures (IL4, Th2) ([3]; Pt ≠ 5): (0.8%)
- mean % of cytokine producing CD4 T cells, in positive microcultures (IFN-γ, Th1) ([3]; Pt ≠ 7): (2.9% ± 3.5)
- mean % of cytokine producing CD4 T cells, in positive microcultures (IL4, Th2) ([3]; Pt ≠ 7): (1.5% ± 0.7)
- mean % of cytokine producing CD4 T cells, in positive microcultures (IFN-γ, Th1) ([3]; Pt ≠ 8): (0.5%)
- mean % of cytokine producing CD4 T cells, in positive microcultures (IL4, Th2) ([3]; Pt ≠ 8): (0.6%)
- mean % of cytokine producing CD4 T cells, in positive microcultures (IL4, Th2) ([3]; Pt ≠ 9): (0.7% ± 0.15)
- Th1 responses, share of tested microcultures ([3]; of 576 tested microcultures, melanoma patients): 9.6%
- melanoma patients with CD4 specific responses (mainly Th1, IFN-g production) ([3]; responding/tested patients): 5/9
- melanoma patients with Th2 responses ([3]; responding/tested patients, IL4): 5/9

Sequence: PWHPSERISSTLNDECWPASL [MELOE-126-46]
- Cytokine profile: GM-CSF [4, 6]: GM-CSF ^high
- Cytokine profile: IFN [4, 6]: IFN ^high
- Cytokine profile: IL2 [4, 6]: IL2 ^high
- Cytokine profile: IL4 [4, 6]: IL4 ^high
- Cytokine profile: IL5 [4, 6]: IL5 ^low
- Cytokine profile: IL10 [4, 6]: IL10 ^neg
- Cytokine profile: IL13 [4, 6]: IL13 ^high
- Cytokine profile: TNF ([4]; clone 4E2, cognate peptide 10 μM, 5 hours, autopresentation): TNF ^high
- HLA-restricting element of the peptide-specific T cell clone [5]: DQβ1*0201
- mean % of TNF-α producing CD4 T cells, in positive microcultures ([2]; donor HD22): (1% ± 0.1)
- healthy donors in whom CD4 responses against the region were detected [2]: 4 out of 7

Sequence: SREQFLPSEGAAC [MELOE-112-24]
- recognition by T cell clone (TNF-α production) [1]: optimal shorter peptides

Sequence: RISSTLNDECWPA [Peptide 32-44]
- recognition by T cell clone (TNF-α production) ([4]; T cell clone 4E2, compared with 31-44): recognized to a lower extent
